Marks after values point to notes of the source that are not given here.
Legend:
Barley = test: Whole plant screen for plant growth regulator activity, barley (BR); assay type: in vivo, Barley (Atem); conditions: BR, 4000 ppm (4 kg/ha), visual score after 2-6 weeks; for T = Tillering or side shooting: * = decrease in tillering
Experimental: (§1) Compounds 1 to 3 in Table 1 were tested for plant growth regulator activity against five species for various growth effects relevant to plant growth regulation.
(§2) The plant species used in this screen are presented in Table II with the leaf stage at which they were sprayed. Each chemical was applied at 4000 ppm (4 kg/ha in a 1000 l/ha field volume) using a tracksprayer and a SS8004E (Teejet) nozzle.
(§3) After spray the plants were grown in a glasshouse with 25° C. day/22° C. night temperatures and supplementary lighting was supplied when necessary (from mercury vapour lamps), to provide a 16 hour photoperiod. The exception to this were the temperate cereals, wheat and barley which were grown in 16° C. day/13° C. night temperatures.
(§4) After 2-6 weeks in the glasshouse, depending on the time of year, the plants were visually assessed for morphological characteristics. Formulation blanks were used as controls to assess the plants.
(§5) Additional compounds in Table I were tested for plant growth regulator activity using the method of Example 60 except that Tomato was included in the test as an additional species. Tomato, Ailsa Craig, was grown in a single 3 inch pot in peat and treated at the 2 to 21/2 leaves growth stage. The results were presented in Table IV in which Tomato is indicated by the code TO and the Key is otherwise as for Table III.

Apple = test: Whole plant screen for plant growth regulator activity, apple (AP); assay type: in vivo, Apple (Red Delicious); conditions: 4000 ppm (4 kg/ha), visual score after 2-6 weeks
Experimental: as §1, §2, §3, §4, §5

Rice = test: Whole plant screen for plant growth regulator activity, rice (RC); assay type: in vivo, Rice (Ishikari); conditions: 4000 ppm (4 kg/ha), visual score after 2-6 weeks; for T = Tillering or side shooting: * = decrease in tillering
Experimental: as §1, §2, §3, §4, §5

Wheat = test: Whole plant screen for plant growth regulator activity, wheat (WW); assay type: in vivo, Wheat (Timmo); conditions: for G = Greening effect / I = Interligular or internodal length reduction / R = Retardation / T = Tillering or side shooting: WW, 4000 ppm (4 kg/ha), visual score after 2-6 weeks; for T = Tillering or side shooting: * = decrease in tillering
Experimental: as §1, §2, §3, §4, §5

Tomato = test: Whole plant screen for plant growth regulator activity, tomato (TO); assay type: in vivo, Tomato (Ailsa Craig); conditions: 4000 ppm (4 kg/ha), visual score after 2-6 weeks
Experimental: as §2, §3, §4, §5
An astrisk (*) after a score under "T" (tillering) indicated a decrease in tillering.

SMILES	G = Greening effect (Barley)	I = Interligular or internodal length reduction (Barley)	R = Retardation (Barley)	G = Greening effect (Apple)	I = Interligular or internodal length reduction (Apple)	R = Retardation (Apple)	G = Greening effect (Rice)	I = Interligular or internodal length reduction (Rice)	R = Retardation (Rice)	T = Tillering or side shooting (Rice)	G = Greening effect (Wheat)	I = Interligular or internodal length reduction (Wheat)	R = Retardation (Wheat)	G = Greening effect (Tomato)	I = Interligular or internodal length reduction (Tomato)	R = Retardation (Tomato)	T = Tillering or side shooting (Barley)	T = Tillering or side shooting (Wheat)	T = Tillering or side shooting (Tomato; * = decrease in tillering)	A = Apical damage (Wheat; 4000 ppm)
CC(C)C(O)(CCC(C)(C)C)c1cncnc1 (stereo not shown) [Compound 20]	1 (10-30%)	2 (31-60%)	2 (31-60%)	2 (31-60%)	3 (61-100%)	3 (61-100%)	2 (31-60%)	3 (61-100%)	2 (31-60%)	3 (61-100%)	2 (31-60%)	3 (61-100%)	3 (61-100%)	2 (31-60%)	3 (61-100%)	3 (61-100%)	–	–	–	–
CCC(C)CCCC(O)(c1cncnc1)C(C)C (stereo not shown) [Compound 21]	1 (10-30%)	3 (61-100%)	2 (31-60%)	–	2 (31-60%)	2 (31-60%)	1 (10-30%)	2 (31-60%)	2 (31-60%)	2 (31-60%)	2 (31-60%)	2 (31-60%)	2 (31-60%)	2 (31-60%)	2 (31-60%)	2 (31-60%)	3 (61-100%)	–	–	–
CC(C)CCCCC(O)(c1cncnc1)C(C)C (stereo not shown) [Compound 22]	–	1 (10-30%)	1 (10-30%)	–	1 (10-30%)	1 (10-30%)	–	–	–	–	2 (31-60%)	2 (31-60%)	2 (31-60%)	2 (31-60%)	2 (31-60%)	2 (31-60%)	–	1 (10-30%)	1 (10-30%)	–
CCCCCCCC(O)(c1cncnc1)C(C)C (stereo not shown) [Compound 26]	–	–	–	–	–	–	–	–	–	–	1 (10-30%)	1 (10-30%)	2 (31-60%)	1 (10-30%)	1 (10-30%)	2 (31-60%)	2 (31-60%)	–	–	–
CC(C)C(O)(CC1CCCC1)c1cncnc1 (stereo not shown) [Compound 27]	–	–	–	–	–	–	–	–	–	–	2 (31-60%)	2 (31-60%)	2 (31-60%)	2 (31-60%)	2 (31-60%)	2 (31-60%)	2*	–	–	–
CCCCCCC#CC(O)(c1cncnc1)C(C)(C)C (stereo not shown) [Compound 33]	–	–	–	–	–	–	–	–	–	–	1 (10-30%)	1 (10-30%)	–	1 (10-30%)	1 (10-30%)	2 (31-60%)	2 (31-60%)	–	–	–
CCCCC(O)(c1cncnc1)C(C)(C)C (stereo not shown) [Compound 35]	–	–	–	–	–	–	–	–	–	–	–	–	–	–	2 (31-60%)	2 (31-60%)	3 (61-100%)	–	–	2*
CC(C)(C)C(O)(C#CCCCl)c1cncnc1 (stereo not shown) [Compound 36]	3 (61-100%)	3 (61-100%)	3 (61-100%)	–	–	–	–	–	–	–	2 (31-60%)	3 (61-100%)	2 (31-60%)	2 (31-60%)	2 (31-60%)	2 (31-60%)	3 (61-100%)	1 (10-30%)	–	–
CC(C)(C)C(O)(C#CCCCCCl)c1cncnc1 (stereo not shown) [Compound 37]	3 (61-100%)	3 (61-100%)	3 (61-100%)	–	–	–	–	–	–	–	2 (31-60%)	3 (61-100%)	2 (31-60%)	–	–	–	3 (61-100%)	1 (10-30%)	–	–
CCC(Cl)CC#CC(O)(c1cncnc1)C(C)(C)C (stereo not shown) [Compound 38]	3 (61-100%)	3 (61-100%)	3 (61-100%)	–	–	–	–	–	–	–	2 (31-60%)	3 (61-100%)	2 (31-60%)	2 (31-60%)	3 (61-100%)	3 (61-100%)	3 (61-100%)	1 (10-30%)	–	–
CC(C)(C)/C=C/C(O)(c1cncnc1)C(C)(C)C (stereo not shown) [Compound 39]	–	3 (61-100%)	3 (61-100%)	–	–	–	–	–	–	–	1 (10-30%)	3 (61-100%)	3 (61-100%)	2 (31-60%)	3 (61-100%)	3 (61-100%)	3 (61-100%)	2 (31-60%)	–	–
CC(C)(C)/C=C/C(O)(c1cncnc1)C(C)(C)CF (stereo not shown) [Compound 49, 3-fluoro-2,2-dimethyl-1-(3,3-dimethylbut-1-ene)-1-(pyrimidin-5-yl)-propan-1-ol]	–	–	–	–	–	–	–	–	–	–	1 (10-30%)	2 (31-60%)	2 (31-60%)	1 (10-30%)	1 (10-30%)	2 (31-60%)	3 (61-100%)	1 (10-30%)	–	–
CC(C)CC#CC(O)(c1cncnc1)C1CC1 (stereo not shown) [Compound 56]	3 (61-100%)	3 (61-100%)	3 (61-100%)	–	–	–	–	–	–	–	2 (31-60%)	3 (61-100%)	2 (31-60%)	1 (10-30%)	1 (10-30%)	1 (10-30%)	3 (61-100%)	1 (10-30%)	–	–

— patent US4875922A, “Pyrimidine derivatives” (Imperial Chemical Industries PLC, priority 1986, dated 1989)
